Experimental data as given in the NIST ThermoML archive (doi:10.1016/j.jct.2015.07.039).
Numbers after ± are expanded uncertainties.

What was measured:
[1] = 298.15 K; 101.33 kPa; Liquid; Vibrating tube method
[2] = refractive index (Na D-line) (dimensionless); details: 298.15 K; 101.33 kPa; Liquid; Standard Abbe refractometry

CCCCl [1-chloropropane] gave a mass density [1] of 883.81 ± 0.16 kg/m3 and a refractive index [2] of 1.38526 ± 0.00032.
